The values that follow come from patent US20250352668A1, “AAV VECTOR ENCODING DIAMINE OXIDASE AND USES THEREOF” (OYSTER POINT PHARMA, INC., priority 2022, published 2025).

In assay [1] the target is T1, nAChR subtype alpha3alpha5beta4 (Homo sapiens, UniProt P30926+P32297).
T1 construct: expressed in transfected cells
To be noted: cited from earlier work.

In assay [2] the target is T2, nAChR subtype alpha6beta2 (Homo sapiens, UniProt P17787+Q15825).
T2 construct: expressed in transfected cells
To be noted: cited from earlier work.

The target in assay [3] is T3, nAChR subtype alpha7 (Homo sapiens, UniProt P36544).
T3 construct: expressed in transfected cells
Conditions: cited from earlier work.

The target of assay [4] is T4, nAChR subtype alpha3beta4 (Homo sapiens, UniProt P30926+P32297).
T4 construct: expressed in transfected cells
Conditions: cited from earlier work.

In assay [5] the target is T5, nAChR subtype alpha4beta2 (Homo sapiens, UniProt P17787+P43681).
T5 construct: expressed in transfected cells
Conditions: cited from earlier work.

In assay [6] the target is T6, nAChR subtype alpha4alpha6beta2 (Homo sapiens, UniProt P17787+P43681+Q15825).
T6 construct: expressed in transfected cells
To be noted: cited from earlier work.

For assay [7], the target named is T7, nAChR subtype alpha3beta2 (Homo sapiens, UniProt P17787+P32297).
T7 construct: expressed in transfected cells
To be noted: cited from earlier work.

The target in assay [8] is T3, nAChR subtype alpha7. The assay is described as follows: nAChR agonist response (ACh-normalised evoked current), subtype alpha7. Format: cell-based. To be noted: 300 micromolar concentration. An excerpt: In general, a nAChR agonist is a full agonist if it evokes a response upon binding to a given receptor that is equal or greater to that of ACh.
nAChR agonist response, from which receptor activation can be determined can, for example, be generated using an appropriate cell-based assay. Cells designed to express a particular nAChR receptor subtype and generate an electrical current response when bound to and activated by a nAChR agonist can be used to characterize the agonist profile of a compound and the amount of receptor activation thus determined. An example of a generic protocol is described below.
Cells that express a particular human nAChR subtype are first exposed to ACh. ACh binds and activates the receptor, thereby evoking a current. The concentration of the ACh is chosen to elicit the maximum response of the receptor (e.g., 1280 micromolar ACh). This current is recorded as the ACh response and serves as the 100% nAChR agonist response and to which responses to other nAChR agonists are compared. […]
The current evoked by exposure to the nAChR agonist is measured and recorded for each nAChR concentration. […] The nAChR agonist response is then calculated as a percentage of the ACh response.
A nAChR agonist evoking a response equal to or greater than the maximum ACh response determined at the same receptor type is a full agonist. […]

T3 sequence (P36544 23-502): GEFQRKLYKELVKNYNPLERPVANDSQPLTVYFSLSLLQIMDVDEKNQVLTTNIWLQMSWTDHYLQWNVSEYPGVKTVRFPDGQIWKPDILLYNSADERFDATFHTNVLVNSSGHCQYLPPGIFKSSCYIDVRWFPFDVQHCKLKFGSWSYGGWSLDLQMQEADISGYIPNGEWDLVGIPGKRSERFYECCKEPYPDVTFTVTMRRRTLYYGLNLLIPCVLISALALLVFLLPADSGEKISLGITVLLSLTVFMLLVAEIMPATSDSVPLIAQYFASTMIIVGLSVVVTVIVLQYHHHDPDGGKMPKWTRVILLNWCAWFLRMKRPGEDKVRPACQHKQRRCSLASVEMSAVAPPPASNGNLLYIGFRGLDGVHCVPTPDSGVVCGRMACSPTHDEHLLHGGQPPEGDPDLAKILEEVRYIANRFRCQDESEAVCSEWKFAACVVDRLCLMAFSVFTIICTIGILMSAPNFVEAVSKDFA
T6 sequence (P43681 29-627 limits assumed): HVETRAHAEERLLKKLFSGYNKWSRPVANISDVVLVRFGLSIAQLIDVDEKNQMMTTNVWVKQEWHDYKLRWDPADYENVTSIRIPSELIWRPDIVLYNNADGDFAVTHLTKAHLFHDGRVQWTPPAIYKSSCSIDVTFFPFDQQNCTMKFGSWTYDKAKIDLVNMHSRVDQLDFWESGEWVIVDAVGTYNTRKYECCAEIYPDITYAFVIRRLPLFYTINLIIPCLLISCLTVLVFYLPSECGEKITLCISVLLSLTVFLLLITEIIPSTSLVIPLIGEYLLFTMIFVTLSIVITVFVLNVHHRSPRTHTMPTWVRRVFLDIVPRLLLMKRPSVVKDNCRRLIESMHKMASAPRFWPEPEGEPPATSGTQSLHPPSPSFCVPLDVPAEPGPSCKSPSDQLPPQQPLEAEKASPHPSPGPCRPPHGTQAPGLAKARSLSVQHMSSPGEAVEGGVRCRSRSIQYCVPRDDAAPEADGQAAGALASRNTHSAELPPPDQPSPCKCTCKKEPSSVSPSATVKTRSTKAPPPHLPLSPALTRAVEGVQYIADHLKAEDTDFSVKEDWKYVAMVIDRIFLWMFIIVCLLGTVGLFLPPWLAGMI
T6 sequence (Q15825 26-494): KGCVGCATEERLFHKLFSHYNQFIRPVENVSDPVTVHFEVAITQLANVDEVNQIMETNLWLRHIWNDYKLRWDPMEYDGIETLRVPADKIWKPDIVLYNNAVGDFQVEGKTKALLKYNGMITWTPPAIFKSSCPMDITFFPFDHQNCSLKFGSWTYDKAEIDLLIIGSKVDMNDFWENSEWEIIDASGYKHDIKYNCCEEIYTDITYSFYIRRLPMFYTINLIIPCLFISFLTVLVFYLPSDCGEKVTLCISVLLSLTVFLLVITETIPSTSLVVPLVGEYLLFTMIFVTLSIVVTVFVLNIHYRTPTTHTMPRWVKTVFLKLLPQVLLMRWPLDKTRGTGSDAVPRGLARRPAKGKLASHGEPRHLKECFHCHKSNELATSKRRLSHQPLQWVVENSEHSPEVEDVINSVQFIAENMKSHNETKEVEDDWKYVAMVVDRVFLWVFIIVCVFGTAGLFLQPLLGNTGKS
T6 sequence (P17787 26-502): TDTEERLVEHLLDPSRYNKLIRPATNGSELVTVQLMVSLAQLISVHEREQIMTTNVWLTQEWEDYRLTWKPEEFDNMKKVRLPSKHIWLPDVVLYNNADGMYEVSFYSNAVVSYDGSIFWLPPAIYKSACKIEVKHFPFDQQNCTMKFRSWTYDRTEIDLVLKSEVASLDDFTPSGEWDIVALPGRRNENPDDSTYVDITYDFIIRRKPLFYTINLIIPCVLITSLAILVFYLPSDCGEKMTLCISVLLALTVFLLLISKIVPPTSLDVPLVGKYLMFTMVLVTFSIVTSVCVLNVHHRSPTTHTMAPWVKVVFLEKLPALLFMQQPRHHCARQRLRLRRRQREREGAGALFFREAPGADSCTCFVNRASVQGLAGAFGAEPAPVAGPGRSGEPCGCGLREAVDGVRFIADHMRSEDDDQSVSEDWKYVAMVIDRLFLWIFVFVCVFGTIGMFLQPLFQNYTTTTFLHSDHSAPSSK
T5 sequence (P43681 29-627 limits assumed): as the sequence (P43681 29-627 limits assumed) above
T5 sequence (P17787 26-502): as the sequence (P17787 26-502) above
T1 sequence (P32297 32-505): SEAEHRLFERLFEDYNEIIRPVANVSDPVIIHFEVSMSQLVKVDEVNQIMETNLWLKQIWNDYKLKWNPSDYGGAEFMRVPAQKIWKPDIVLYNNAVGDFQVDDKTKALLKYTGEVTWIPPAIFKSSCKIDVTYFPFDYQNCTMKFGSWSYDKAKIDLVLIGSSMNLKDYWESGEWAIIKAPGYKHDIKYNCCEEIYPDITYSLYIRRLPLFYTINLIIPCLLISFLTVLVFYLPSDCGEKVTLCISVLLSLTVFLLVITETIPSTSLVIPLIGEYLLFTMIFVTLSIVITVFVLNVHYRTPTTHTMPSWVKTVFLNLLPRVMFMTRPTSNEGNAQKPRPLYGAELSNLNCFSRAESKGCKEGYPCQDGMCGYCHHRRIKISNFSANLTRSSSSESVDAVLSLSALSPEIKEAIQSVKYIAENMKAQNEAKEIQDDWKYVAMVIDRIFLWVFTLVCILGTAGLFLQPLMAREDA
T1 sequence (P30532 23-468 partner): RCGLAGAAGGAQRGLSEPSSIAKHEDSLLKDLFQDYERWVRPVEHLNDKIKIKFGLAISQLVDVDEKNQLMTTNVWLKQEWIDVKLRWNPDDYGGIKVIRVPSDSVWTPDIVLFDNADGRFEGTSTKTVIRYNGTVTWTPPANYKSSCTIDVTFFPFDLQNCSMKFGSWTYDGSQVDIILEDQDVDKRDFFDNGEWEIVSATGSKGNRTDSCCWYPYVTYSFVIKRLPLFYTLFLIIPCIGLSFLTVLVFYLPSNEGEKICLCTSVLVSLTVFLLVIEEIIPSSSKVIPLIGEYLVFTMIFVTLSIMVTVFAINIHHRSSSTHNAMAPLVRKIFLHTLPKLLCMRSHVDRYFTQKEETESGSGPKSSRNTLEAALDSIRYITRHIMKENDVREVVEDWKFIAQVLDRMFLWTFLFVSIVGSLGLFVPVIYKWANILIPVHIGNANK
T1 sequence (P30926 22-498): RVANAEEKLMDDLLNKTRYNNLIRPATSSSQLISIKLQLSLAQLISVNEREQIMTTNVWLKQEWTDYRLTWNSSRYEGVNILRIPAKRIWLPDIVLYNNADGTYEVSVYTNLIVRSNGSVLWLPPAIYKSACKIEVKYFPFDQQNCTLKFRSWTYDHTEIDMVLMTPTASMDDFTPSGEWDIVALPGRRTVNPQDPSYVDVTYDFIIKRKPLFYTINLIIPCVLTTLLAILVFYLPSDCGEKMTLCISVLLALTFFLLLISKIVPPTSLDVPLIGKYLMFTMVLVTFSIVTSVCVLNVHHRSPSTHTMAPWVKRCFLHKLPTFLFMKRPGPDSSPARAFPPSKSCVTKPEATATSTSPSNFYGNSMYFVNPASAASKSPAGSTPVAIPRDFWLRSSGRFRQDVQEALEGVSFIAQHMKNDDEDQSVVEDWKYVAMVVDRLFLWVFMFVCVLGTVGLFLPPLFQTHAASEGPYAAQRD
T4 sequence (P32297 32-505): as the sequence (P32297 32-505) above
T4 sequence (P30926 22-498): as the sequence (P30926 22-498) above
T2 sequence (Q15825 26-494): as the sequence (Q15825 26-494) above
T2 sequence (P17787 26-502): as the sequence (P17787 26-502) above
T7 sequence (P32297 32-505): as the sequence (P32297 32-505) above
T7 sequence (P17787 26-502): as the sequence (P17787 26-502) above

Consider `O=C(O)C(O)C(O)C(=O)O.c1cnc2cc3c(cc2n1)C1CNCC3C1` [Varenicline], for which the “agonist characterisation at nAChR subtype alpha3alpha5beta4” value in assay [1] was “partial agonist”. For the same molecule, in assay [2], the “agonist characterisation at nAChR subtype alpha6beta2” value is given as “partial agonist”. On nAChR subtype alpha7 [3], the “agonist characterisation at nAChR subtype alpha7” value was “full agonist”. In assay [4], the “agonist characterisation at nAChR subtype alpha3beta4” value was “partial agonist”. For the same molecule, the “agonist characterisation at nAChR subtype alpha4beta2” value in assay [5] is given as “partial agonist”. Further, the “agonist characterisation at nAChR subtype alpha4alpha6beta2” value in assay [6] is listed as “partial agonist”.
As for `C(=C\[C@H]1CCNC1)/c1cncnc1` [Compound 1, (R)-5-((E)-2-pyrrolidin-3-ylvinyl)pyrimidine], the “agonist characterisation at nAChR subtype alpha3alpha5beta4” value in assay [1] was “full agonist”. The “agonist characterisation at nAChR subtype alpha3beta2” value in assay [7] is reported as “partial agonist”. Further, the “agonist characterisation at nAChR subtype alpha7” value on nAChR subtype alpha7 [3] is listed as “weak partial agonist”. Besides, in assay [4], the “agonist characterisation at nAChR subtype alpha3beta4” value is listed as “full agonist”. Moreover, in assay [5], the “agonist characterisation at nAChR subtype alpha4beta2” value is “full agonist”. In addition, the “agonist characterisation at nAChR subtype alpha4alpha6beta2” value in assay [6] is “full agonist”.
Regarding `C(=C\[C@H]1CCNC1)/c1cncnc1.O=C(O)CC(O)(CC(=O)O)C(=O)O` [compound 1 citrate, (R)-5-((E)-2-pyrrolidin-3-ylvinyl)pyrimidine mono-citrate], the “evoked current as % of the maximal ACh-evoked current” value at nAChR subtype alpha7 [8] was determined as 25%.
